The results in this text go back to US5639726A, “Peptide mediated enhancement of thrombolysis methods and compositions” (The Regents of the University of Michigan, priority 1994, dated 1997).

Experiment [1] deals with T1, PAI-1 (Homo sapiens, UniProt P05121).
T1 construct: made in house; host or cells: E. coli (vector pET3a)
Put plainly: Plasminogen activator inhibitor 1 activity assay (t-PA, Spectrozyme t-PA). Format: biochemical. Conditions: for PAI-1 T1/2: PAI-1 0.7 μM, peptide 55 μM, 98±18 min without peptide. As to the method:
PAI-1 (0.7 μM) was incubated at 37° C. with either P1-P14 peptide or control peptide (55 μM) in 0.1M HEPES, 0.1M NACl, 0.1% PEG (MW 8000), pH 7.4 (assay buffer). At timed intervals 0-110 minutes), 5 μL of the PAI-1:peptide mixture was added to 96 well microtiter plates containing 45 μL of t-PA (0.03 μM in assay buffer), then incubated for 30 minutes at 37° C. Spectrozyme t-PA (final concentration of 150 μM) was added to yield a final reaction volume of 70 μL, and 30 minutes later the absorbance at 405 nm was determined in a THERMO-max (Molecular Devices, Palo Alto, Calif.) microplate reader. 100% PAI-1 activity was defined as activity observed at time zero, while 0% PAI-1 activity was defined as that observed in the absence of PAI-1. A standard t-PA activity curve, derived from absorbance values of varying concentrations of t-PA incubated in the absence of PAI-1, was used to determine PAI-1 activity.

In experiment [2] the test system is platelet-rich clots. In words: In vitro clot lysis assay, platelet-rich clots. It counts as biochemical, human. As to the method:
Blood samples were collected by peripheral venipuncture from normal subjects into acid-citrate-dextrose anticoagulant (0.8% w/v citric acid, 2.2% trisodium citrate, 2.45% dextrose) at a ratio of 6 volumes of blood to 1 volume of anticoagulant. Donors had not consumed aspirin for at least 7 days prior to phlebotomy. Washed platelets were prepared by repeated centrifugation as previously described (Fay et al., 1994), then resuspended in Tyrode's buffer (137 mM NACl, 2.68 mM KCl, 2 mM CaCl2, 1 mM MgCl2, 0.36 mM NaH2 PO4, 11.9 mM NaHCO3, 5 mM HEPES, 0.1% glucose, 0.35% bovine serum albumin, pH 7.35). Clot lysis assays were performed as previously described (Fay et al., 1994). […] The fluorescence of this dilution was measured and % clot lysis was calculated, as previously described (Fay et al., 1994). […] The capacity of P1-P14 peptide to accelerate fibrinolysis in vitro, both in the absence and presence of platelets was also evaluated. […] After 30 min at 37° C., fibrinolysis was initiated by the addition of t-PA (20 nM), and % clot lysis was determined 60 min later. […]

For experiment [3], the target named is T1, PAI-1. In words: Native gel electrophoresis of PAI incubated with peptide. Format: binding. As to the method:
(§1) SDS-polyacrylamide gel electrophoresis (SDS-PAGE) under nonreducing conditions was carried out according to the method of Laemmli (Laemmli, 1970) on 10% gels. Native gel electrophoresis with 5% gels was carried out by omitting SDS and boiling from Laemmli's method. All gels were stained with Coomassie brilliant blue. Gels of PAI-peptide samples were scanned with an LKB Ultroscan XL Laser Densitometer to determine the relative amounts of peptide-annealed and latent PAI.
Four of the five peptides have a net negative charge due to glutamic acid residues and the free carboxy terminus (FIG. 1). The wtPAI 8-mer has a net -1 charge (the carboxy terminus). The V→E PAI 8-mer (SEQ ID NO:3) and consensus 8-mer (SEQ ID NO:4) each have a -2 charge (the glutamic acid residue and the carboxyl group). […] The PAI 14-mer (SEQ ID NO:1) is uncharged since it contains no glutamic acid and the arginine and carboxyl groups neutralize each other. Because of the negative charges of 4 of the peptides, native gels of PAI annealed to these peptides should show a band which migrates more quickly than the band representative of free active PAI. Similarly, if one of these peptides is incubated with PAI but fails to form a strong interaction with PAI, native gels should show a band which migrates identically to the free PAI.

Experiment [4] has as its target T1, PAI-1. Put plainly: SDS-PAGE of peptide treated PAI-1 reacted with tPA, uPA or trypsin. It counts as biochemical. Conditions: for formation of SDS stable PAI-1:enzyme complexes after peptide treatment: free PAI-1 preincubated with peptide, then tPA (uPA or trypsin); for conversion of PAI-1 to a substrate (cleaved PAI-1): peptide treated PAI-1 reacted with tPA. As to the method: as §1
PAI that had been incubated with peptide was tested for inhibitory and substrate activity by incubating with tPA, uPA or trypsin. SDS-PAGE was then performed on the samples. Free PAI formed a complex band when incubated with any of the enzymes, as well as a faint band indicative of cleaved PAI. Because substoichiometric amounts of enzyme were used there was also a band for free PAI. When PAI was incubated with any of the peptides, the electrophoretic mobility was the same as that of free PAI after denaturing with SDS. When PAI was annealed to any of 8-mers, then allowed to react with tPA, uPA or trypsin, no PAI-enzyme complex band was seen.
SDS-PAGE was performed using a PhastSystem (Pharmacia), Upssala, Sweden, according to manufacturer's instructions. Gels were stained with Coomassie Brilliant Blue.
SDS-PAGE was performed to determine the effect of Thr-Val-Ala-Ser-Ser-Ser-Thr-Ala-Val-Ile-Val-Ser-Ala-Arg (SEQ ID NO: 1) on t-PA:PAI-1 complex formation in the presence and absence of vitronectin.

Entries after “also recorded” stand apart in the source; their conditions may differ. Ends that are not written are not given here.

T1 sequence (P05121 24-402): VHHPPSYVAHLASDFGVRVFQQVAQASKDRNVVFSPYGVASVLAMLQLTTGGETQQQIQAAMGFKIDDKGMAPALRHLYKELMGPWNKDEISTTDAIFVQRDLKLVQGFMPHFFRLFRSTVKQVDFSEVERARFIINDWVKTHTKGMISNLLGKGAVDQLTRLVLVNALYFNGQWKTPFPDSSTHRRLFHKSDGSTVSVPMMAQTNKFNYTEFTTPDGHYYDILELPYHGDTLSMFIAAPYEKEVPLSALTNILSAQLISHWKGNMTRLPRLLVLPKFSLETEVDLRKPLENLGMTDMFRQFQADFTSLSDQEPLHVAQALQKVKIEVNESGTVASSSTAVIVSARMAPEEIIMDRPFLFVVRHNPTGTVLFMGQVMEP

As to “Ac-TVASSSTAVIVSAR [SEQ ID NO: 1, Thr-Val-Ala-Ser-Ser-Ser-Thr-Ala-Val-Ile-Val-Ser-Ala-Arg]”, the “PAI-1 T1/2” value is “approximately four” in experiment [1] (37° C.) and 4 ± 3 min in experiment [1] (37° C., listed as P1-P14 peptide). Moreover, the “fold shortening of the PAI-1 T1/2” value in experiment [1] (37° C., peptide 55 μM vs no peptide, listed as P1-P14 peptide) is given as 24 fold. For the same substance, the “drop in t1/2, wt14-mer (37° C.) compared to wt8-mer (25° C.)” value in experiment [1] (similar peptide concentrations (55 μM)) was 100 fold. In experiment [2] (70 μM peptide), the “tPA induced platelet rich clot lysis” value was “significant enhancement”. The “lysis of platelet-rich clots at 90 minutes” value in experiment [2] (2.5×10^8 platelets/mL, t-PA 75 pM, 8±3% without peptide) was determined as 41±12%. Moreover, the “electrophoretic mobility of active PAI incubated with peptide, native gel” value in experiment [3] is given as “a band at the same position as free active PAI”. In addition, the results for the “formation of SDS stable PAI-1:enzyme complexes after peptide treatment” value in experiment [4] and in experiment [4] (listed as P1-P14 peptide) were “no t-PA:PAI-1 complex formation was observed” and “inhibited complex formation”, respectively. The “PAI forms on SDS-PAGE” value is “almost all of the PAI is in the latent conformation” in experiment [4] (high peptide concentration) and “a significant substrate band formed along with the dominant latent PAI band” in experiment [4] (low peptide concentration). Also, the “conversion of PAI-1 to a substrate (cleaved PAI-1)” value in experiment [4] was “did not convert PAI-1 to a substrate form; also recorded: substrate form of PAI-1 was not generated”; in experiment [4] (listed as wt14-mer) it was “did not behave as a substrate”.
